Assay [1] concerns P. aeruginosa-induced sepsis and LPS-mediated shock. Conditions: mouse models of endotoxic shock; cited from earlier work.
For assay [2], the system named is LPS / TLR4- and TLR2-induced NF-kB activation. Conditions: cited from earlier work.
Assay [3] deals with S. aureus, P. aeruginosa and E. coli. In words: MIC and MBC of TCP-25 with EDTA, text summary for all three bacterial strains (FIG. 20B-C). It is filed as cell-based.
Protocol: The minimal inhibitory concentration (MIC) was conducted according to standard protocol (Wiegand et al., 2008). A 1% bacterial solution was diluted 1:1000 times in 2×BBL™ Mueller Hinton (MH) II, cation adjusted broth (Becton, Dickinson and Company, Sparks, USA). […] Next, 50 μl of the bacterial solution was added. MH broth without bacteria was used as a sterile control, whereas supplemented only with bacteria as growth control. […] MIC was assessed as the lowest concentration of treatment that prevents visual bacterial growth in the wells. The MIC plates were then used to determine the minimal bactericidal concentration (MBC) for the various treatments. This was conducted by resuspending the solution in each well with a pipette and then plating 10 μl droplets on a THA plates which were then incubated in 37° C. overnight. MBC was established at concentration at which no bacterial colonies were observed.

With “HVFRLKKWIQKVIDQFGE (TCP-25 fragment; PEPTIDE (1)..(18) TCP-25 fragment) [HVF18]”, the mortality entry in assay [1] is listed as “reduce mortality”. For the same molecule, the anti-endotoxic functions result in assay [2] was “anti-endotoxic functions in vitro and in vivo”.
On to `O=C(O)CN(CCN(CC(=O)O)CC(=O)O)CC(=O)O` [EDTA, ethylenediaminetetraacetic acid], for which the “antibacterial effect of EDTA alone” value in assay [3] was “some bacteriostatic effect”.

Values taken from US20230127258A1, “COMPOSITION COMPRISING THROMBIN DERIVED PEPTIDES AND USE THEREOF” (In2Cure AB, priority 2019, published 2023).
